One test deals with Staphylococcus aureus. It is filed as cell-based. Conditions: 100 ppm; subcultures 72 hours at 37° C.
The test system of another test is Verticillium albo-atrum. The test can be described thus: Agar dilution plate. Conditions: Va; 100 ppm, 72 hours at 23° C. The format is cell-based. The procedure:
(§1) Test compounds were incorporated in a Sabouraud's dextrose agar in an amount sufficient to provide the active ingredient in a concentration of about 100 ppm. A twenty-ml. sample of the agar mixture is placed in a petri dish and permitted to solidify. An agar sample is inoculated with the test organism set forth below and then covered and incubated for a period of about 72 hours at 23° C. After incubation, growth observations are made. The test results are recorded and the test is repeated twice for the purpose of comparison.
(§2) The data obtained with a variety of test organisms is shown in the table below, and ratings are shown as 0 or 5. O indicates no control, 5 indicates 100% effectiveness of the test compound against the specified organism.
Va= Verticillium albo-atrum
Background: Agar dilution tests growth on a series of plates holding different concentrations.

Test [1] relates to Monilinia fructicola. The test can be described thus: Agar dilution plate. Conditions: Mf; 100 ppm, 72 hours at 23° C. The format is cell-based. The method, then: as §1, §2
Test [2] deals with Aspergillus niger. Put plainly: Agar dilution plate. It is filed as cell-based. The note with it: An; 100 ppm, 72 hours at 23° C. The method, then: as §1, §2
In a further test the test system is Pythium de Baryanum. Put plainly: Agar dilution plate. The format is cell-based. Conditions: Pd; 100 ppm, 72 hours at 23° C. The procedure:
as §1, §2

For another test, the system named is Rhizoctonia solani. The test can be described thus: Agar dilution plate. The format is cell-based. Conditions: Rs; 100 ppm, 72 hours at 23° C. The procedure: as §1, §2
A further test concerns Fusarium lycopersici. The test can be described thus: Agar dilution plate. Conditions: Fl; 100 ppm, 72 hours at 23° C. The format is cell-based. The method, then:
as §1, §2

The next test concerns Pseudomonas solaracaerum. The format is cell-based.
Another test deals with Aerobacter aerogenes. The format is cell-based. The note with it: 100 ppm; subcultures 72 hours at 37° C.
Test [3] has as its system Monilinia fructicola. Put plainly: Spore germination inhibition. Conditions: for inhibition at 1 ppm / inhibition at 10 ppm: 24 hours; for inhibition at 100 ppm: 24 h, read-out: % Inhibition of Spore Germination. The format is cell-based. An excerpt:
(§3) The test procedure involves the preparation of a 100, 10 or 1 ppm. suspension of test compound in water. The solutions are placed in one dram "opticlear" vials and separately inoculated with one drop of a spore suspension prepared from seven-day cultures of Aspergillus niger and 14-day old cultures of Monilinia fructicola and Stemphylium sarcinaeforme,all grown on potato-dextrose agar. The vials containing the separately inoculated solutions of test compounds are then capped and placed on a rotating tumbler for 24 hours to assure contact of the organism with the test compound. After 24 hours, the vials are removed and examined for inhibition of […].

In test [4] the test system is Aspergillus niger. Put plainly: Spore germination inhibition. The format is cell-based. Conditions: 24 hours.
Text: as §3

In test [5] the test system is Stemphylium sarcinaeforme. Put plainly: Spore germination inhibition. The format is cell-based. The note with it: Stemphylium sarciniforme; for inhibition at 100 ppm: 24 h, read-out: % Inhibition of Spore Germination; for inhibition at 1 ppm / inhibition at 10 ppm: 24 hours.
Text: as §3

Test [6] relates to Collectotrichum lagenarium. Put plainly: Agar dilution plate. The format is cell-based. The note with it: Cl; 100 ppm, 72 hours at 23° C. The procedure: as §1, §2
Cl= Collectotrichum lagenarium

The subject of the next test is Xanthomonas vesicatoria. It is filed as cell-based. Conditions: 100 ppm; subcultures 72 hours at 37° C.
The next test relates to Piricularia oryzae. The format is in vivo. Conditions: Rice Blast, five days. More on the design: scale not given here.
The subject of test [7] is Stemphylium sarcinaeforme. Put plainly: Agar dilution plate. The format is cell-based. Conditions: Ss; 100 ppm, 72 hours at 23° C. The procedure: as §1, §2
Ss= Stemphylium sarcinaeforme

In a further test the test system is Phytophthora infestans. The format is in vivo. Set-up: scale not given here. Conditions: Tomato Late Blight, five days.
In the next test the test system is Venturia inaequalis. Conditions: in vivo. Also: key: 5: clean, no disease; 4: trace of disease; 3: slight disease; 2: moderate disease; 1: severe disease; 0: like controls.

Five molecules from patent US4148795A, “Dithiocarbamate ester bactericides and fungicides” (American Cyanamid Company, priority 1976, dated 1979) can be followed below.

Read-outs that look alike come from different tables or passages of the source.
For Antibacterial Activity rating in this document: key: 0: No Effect; 9: Kill of Bacteria; 5: Stasis, but not Kill of all Bacteria.

For the molecule `CC(=O)C(CSC(=S)N(C)C)=C(C)O` [Example 9, 2-(1-Hydroxyethylidene)-3-oxobutyl Dimethyldithiocarbamate], the entries for the “Antibacterial Activity rating” value in the test with Staphylococcus aureus, in the test with Aerobacter aerogenes and in the test on Xanthomonas vesicatoria were 5, 0 and 0, respectively. Besides, the “Agar Dilution Plate rating” value in the test on Verticillium albo-atrum, with Monilinia fructicola [1], in the test on Aspergillus niger [2], in the test on Pythium de Baryanum, in the test with Rhizoctonia solani and with Fusarium lycopersici was 0 each time. The “Agar Dilution Plate rating” value is 0 in the test on Pseudomonas solaracaerum (100 ppm, 72 hours at 23° C); 5 (100% effectiveness of the test compound against the specified organism) in [6]; 0 in [7]. In addition, the inhibition at 1 ppm (with Monilinia fructicola [3]; in the test with Aspergillus niger [4]; in test [5]) was 0% each time. Further, the inhibition at 10 ppm (in the test with Monilinia fructicola [3]; in the test on Aspergillus niger [4]; in test [5]) was 0% throughout. The inhibition at 100 ppm (with Monilinia fructicola [3]; in the test with Aspergillus niger [4]; in test [5]) was 100% in each case. The disease control index in the test with Piricularia oryzae (150 ppm) amounted to 0; in the test on Piricularia oryzae (300 ppm) it was 2; in the test with Piricularia oryzae (600 ppm), 3; in the test with Piricularia oryzae (1200 ppm) it was 4.

As to `CC(=O)Oc1ccc(C(C[N+](=O)[O-])SC(=S)N(C)C)cc1` (stereo not drawn) [Example 24, 4-Acetoxy-α-(nitromethyl)benzyl Dimethyldithiocarbamate], the “Agar Dilution Plate rating” value with Verticillium albo-atrum is 5 (100% effectiveness of the test compound against the specified organism); in the test with Monilinia fructicola [1] it was 5 (100% effectiveness of the test compound against the specified organism); with Aspergillus niger [2], 0; in the test with Pythium de Baryanum, 0; in the test on Rhizoctonia solani, 0; in the test on Fusarium lycopersici it was 0. Further, the “Agar Dilution Plate rating” value was 0 with Pseudomonas solaracaerum (100 ppm, 72 hours at 23° C); 5 (100% effectiveness of the test compound against the specified organism) in test [6]; 5 (100% effectiveness of the test compound against the specified organism) in test [7]. Also, the disease control index was 3 with Phytophthora infestans (at 100 ppm); 5 in the test with Phytophthora infestans (at 500 ppm); 3 in the test with Piricularia oryzae (at 75 ppm); 4 with Piricularia oryzae (at 500 ppm); 5 in the test with Venturia inaequalis. The inhibition at 1 ppm with Monilinia fructicola [3] and in the test with Aspergillus niger [4] was 0% each time. Moreover, the inhibition at 10 ppm in the test on Monilinia fructicola [3] and with Aspergillus niger [4] was 100% in each case. In addition, the inhibition (commonly how much of the control response was suppressed) at 100 ppm in the test on Monilinia fructicola [3] stood at 100%; in the test on Aspergillus niger [4] it was 100%; in test [5], 0%.

As to `CN(C)C(=S)SC(C[N+](=O)[O-])c1cccc2ccccc12` (stereo not shown) [Example 31, 1-Naphthyl-2-nitroethyl Dimethyldithiocarbamate], the “Agar Dilution Plate rating” value is on record as 5 (100% effectiveness of the test compound against the specified organism) in the test with Verticillium albo-atrum; 5 (100% effectiveness of the test compound against the specified organism) in the test with Monilinia fructicola [1]; 0 in the test with Aspergillus niger [2]; 5 (100% effectiveness of the test compound against the specified organism) in the test on Pythium de Baryanum; 5 (100% effectiveness of the test compound against the specified organism) with Rhizoctonia solani; 0 in the test with Fusarium lycopersici. Further, the “Agar Dilution Plate rating” value is reported as 0 with Pseudomonas solaracaerum (100 ppm, 72 hours at 23° C); 5 (100% effectiveness of the test compound against the specified organism) in test [6]; 5 (100% effectiveness of the test compound against the specified organism) in test [7]. Besides, the disease control index in the test with Phytophthora infestans (at 100 ppm) is 5; with Phytophthora infestans (at 500 ppm) it was 5; in the test on Piricularia oryzae (at 75 ppm), 4; in the test on Piricularia oryzae (at 500 ppm), 5; in the test on Venturia inaequalis it was 4. Moreover, the inhibition at 1 ppm (in the test with Monilinia fructicola [3]; with Aspergillus niger [4]; in test [5]) was 0% in each case. Further, the inhibition at 10 ppm (in the test on Monilinia fructicola [3]; in the test with Aspergillus niger [4]; in [5]) was 0% each time. Moreover, the inhibition at 100 ppm (in the test with Monilinia fructicola [3]; in the test with Aspergillus niger [4]; in test [5]) was 100% in each case.

As to `CCC(CSC(=S)N(C)C)[N+](=O)[O-]` (stereo not shown) [Example 6, 2-Nitrobutyl Dimethyldithiocarbamate], the “Antibacterial Activity rating” value in the test with Staphylococcus aureus, with Aerobacter aerogenes and with Xanthomonas vesicatoria was 9 in each case. In addition, the “Agar Dilution Plate rating” value in the test on Verticillium albo-atrum, with Monilinia fructicola [1], with Aspergillus niger [2], in the test with Pythium de Baryanum, with Rhizoctonia solani and in the test on Fusarium lycopersici was 5 (100% effectiveness of the test compound against the specified organism) in each case. Besides, the “Agar Dilution Plate rating” value in the test with Pseudomonas solaracaerum (100 ppm, 72 hours at 23° C) is given as 0; in [6] it was 5 (100% effectiveness of the test compound against the specified organism); in test [7], 5 (100% effectiveness of the test compound against the specified organism). For the same molecule, the inhibition at 1 ppm in the test with Monilinia fructicola [3] turned out to be 100%; in the test on Aspergillus niger [4] it was 0%; in [5], 100%. Moreover, the inhibition at 10 ppm (in the test on Monilinia fructicola [3]; in the test with Aspergillus niger [4]; in test [5]) was 100% each time. Further, the inhibition at 100 ppm (in the test on Monilinia fructicola [3]; with Aspergillus niger [4]; in test [5]) was 100% throughout.

For `CC(=O)C(CSC(=S)N(C)C)SC(=S)N(C)C` (stereo not shown) [Example 10, Acetylethylene Dimethyldithiocarbamate], the “Antibacterial Activity rating” value in the test on Staphylococcus aureus amounted to 9; in the test with Aerobacter aerogenes, 9; in the test on Xanthomonas vesicatoria it was 5. Further, the “Agar Dilution Plate rating” value with Verticillium albo-atrum, with Monilinia fructicola [1], in the test with Aspergillus niger [2], with Pythium de Baryanum, in the test with Rhizoctonia solani and in the test with Fusarium lycopersici was 5 (100% effectiveness of the test compound against the specified organism) in each case. For the same molecule, the “Agar Dilution Plate rating” value with Pseudomonas solaracaerum is on record as 0; in test [6], 5 (100% effectiveness of the test compound against the specified organism); in test [7] it was 5 (100% effectiveness of the test compound against the specified organism). The disease control index with Phytophthora infestans (at 100 ppm) is 4; in the test on Phytophthora infestans (at 500 ppm), 5; in the test with Piricularia oryzae (at 75 ppm) it was 4; in the test with Piricularia oryzae (at 500 ppm), 5. Moreover, the inhibition at 1 ppm (in the test with Monilinia fructicola [3]; in the test with Aspergillus niger [4]; in test [5]) was 100% throughout. For the same molecule, the inhibition at 10 ppm (in the test with Monilinia fructicola [3]; with Aspergillus niger [4]; in test [5]) was 100% in each case. In addition, the inhibition at 100 ppm (in the test on Monilinia fructicola [3]; in the test on Aspergillus niger [4]; in [5]) was 100% in each case.
